Reference: patent US9981928B2, “Aryl sulfide derivatives and aryl sulfoxide derivatives as acaricides and insecticides” (BAYER CROPSCIENCE AKTIENGESELLSCHAFT, priority 2013, dated 2018)
Where two headings read alike, the source gives them in different places.

How the values were obtained:
[1] = log P determination by HPLC on reversed-phase columns (C 18), analogously to OECD Guideline 117; format: physicochemical; details: for logP (HCOOH): LC-MS in the acidic range, pH 2.7, 0.1% aqueous formic acid / acetonitrile; for logP (HCOOH) / logP (neutral): HPLC reversed-phase C 18; for logP (neutral): LC-MS in the neutral range, pH 7.8, 0.001 molar aqueous ammonium hydrogencarbonate / acetonitrile; for chromatographic logP: reversed-phase C18 HPLC column
How it was run: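 Reversed-phase C18 HPLC per OECD 117 with LC-MS detection and a linear 10→95% acetonitrile gradient. Acidic log P run at pH 2.7 with 0.1% formic acid in both eluents. Neutral log P run at pH 7.8 with 0.001 M aqueous ammonium hydrogencarbonate.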

[2] = system: greenhouse red spider mite (Tetranychus urticae); experiment: Tetranychus urticae spray test, OP-resistant (TETRUR), bean leaf disks; format: in vivo; details: bean leaf disks, application rate 500 g/ha, after 6 days; for pest or weed control at 500 g/ha: Tetranychus urticae, foliar, 144 h, read-out: efficacy in %
How it was run: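 Bean leaf disks carrying all stages of OP-resistant Tetranychus urticae sprayed with compound in acetone/dimethylformamide diluted in emulsifier water. Kill assessed after 6 days as % efficacy, 100% meaning all mites dead.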

[3] = system: larvae of the mustard beetle (Phaedon cochleariae); experiment: Phaedon cochleariae spray test (PHAECO); format: in vivo; details: Chinese cabbage leaf disks; application rate 500 g/ha; after 7 days
Experimental: Phaedon cochleariae—Spray Test (PHAECO)
(§1) Solvent: 78.0 parts by weight of acetone
(§2) • 1.5 parts by weight of dimethylformamide Emulsifier: alkylaryl polyglycol ether
(§3) To produce a suitable preparation of active compound, 1 part by weight of active compound is dissolved using the stated parts by weight of solvent and made up with water containing an emulsifier concentration of 1000 ppm until the desired concentration is attained. To produce further test concentrations, the preparation is diluted with emulsifier-containing water.
After 7 days, the efficacy in % is determined. 100% means that all the beetle larvae have been killed; 0% means that no beetle larvae have been killed.

[4] = system: southern root-knot nematode (Meloidogyne incognita); experiment: Meloidogyne incognita test (MELGIN); format: in vivo; details: lettuce in sand; application rate 20 ppm; after 14 days
Experimental: Meloidogvne incognita test (MELGIN)
Solvent: 125.0 parts by weight of acetone
To produce a suitable preparation of active compound, 1 part by weight of active compound is mixed with the stated amount of solvent and the concentrate is diluted with water to the desired concentration.
Vessels are filled with sand, active compound solution, an egg/larvae suspension of the southern root-knot nematode (Meloidogyne incognita) and lettuce seeds. The lettuce seeds germinate and the plants develop. The galls develop on the roots.
After 14 days, the nematicidal efficacy in % is determined by the formation of galls. 100% means that no galls were found; 0% means that the number of galls on the treated plants corresponds to the untreated control.

[5] = system: cattle ticks (Boophilus microplus) Parkhurst strain, SP-resistant; experiment: Boophilus microplus dip test (BOOPMI Dip); format: in vivo; details: engorged adult female ticks dipped; application rate 100 ppm; assessed after 7 days
Experimental: Boophilus microplus—Dip Test (BOOPMI Dip)
Test animals: cattle ticks (Boophilus microplus) Parkhurst strain, SP-resistant
(§4) Solvent: dimethyl sulfoxide
10 mg of active compound are dissolved in 0.5 ml of dimethyl sulfoxide. To produce a suitable formulation, the active compound solution is diluted with water to the concentration desired in each case.
This active compound preparation is pipetted into tubes. 8-10 engorged adult female cattle ticks (Boophilus microplus) are transferred into a further tube with holes. The tube is immersed into the active compound preparation, and all the ticks are completely wetted. After the liquid has run out, the ticks are transferred on filter disks into plastic dishes and stored in a climate-controlled room.
(§5) Efficacy is assessed after 7 days by laying of fertile eggs. Eggs which are not visibly fertile are stored in a climate-controlled cabinet until the larvae hatch after about 42 days. An efficacy of 100% means that none of the ticks has laid any fertile eggs; 0% means that all the eggs are fertile.

[6] = system: cattle ticks (Boophilus microplus); experiment: Boophilus microplus injection test (BOOPMI inj); format: in vivo; details: injection into the abdomen; application rate 20 μg/animal; assessed after 7 days
Experimental: Boophilus microplus—Injection Test (BOOPMI inj)
as §4
To produce a suitable preparation of active compound, 10 mg of active compound are mixed with 0.5 ml of solvent and the concentrate is diluted with solvent to the desired concentration.
1 μl of the active compound solution is injected into the abdomen of 5 engorged adult female cattle ticks (Boophilus microplus). The animals are transferred into dishes and kept in a climate-controlled room.
as §5

Amblyomma hebraeum = Amblyomma hebraeum test (AMBYHE), tick nymph immersion; format: in vivo; details: tick nymphs immersed for one minute; application rate 100 ppm; after 42 days
Experimental: Amblyomma hebaraeum Test (AMBYHE)
as §4
To produce a suitable preparation of active compound, 10 mg of active compound are mixed with 0.5 ml of dimethyl sulfoxide, and the concentrate is diluted with water to the desired concentration.
Tick nymphs (Amblyomma hebraeum) are placed into perforated plastic beakers and immersed in the desired concentration for one minute. The ticks are transferred on filter paper into a Petri dish and stored in a climate-controlled cabinet.
After 42 days, the kill in % is determined. 100% means that all of the ticks have been killed; 0% means that none of the ticks have been killed.

[7] = system: green peach aphid (Myzus persicae); experiment: Myzus persicae spray test (MYZUPE); format: in vivo; details: Chinese cabbage leaf disks; application rate 500 g/ha; after 6 days
Experimental: Myzus persicae—Spray Test (MYZUPE)
Solvent: 78 parts by weight of acetone
as §2, §3
Disks of Chinese cabbage leaves (Brassica pekinensis) infested by all stages of the green peach aphid (Myzus persicae) are sprayed with an active compound preparation of the desired concentration.
After 6 days, the efficacy in % is determined. 100% means that all the aphids have been killed; 0% means that none of the aphids have been killed.

[8] = system: caterpillars of the armyworm (Spodoptera frugiperda); experiment: Spodoptera frugiperda spray test (SPODFR); format: in vivo; details: maize leaf disks; application rate 500 g/ha; after 7 days
Experimental: Spodoptera frugiperda—Spray Test (SPODFR)
as §1, §2, §3
Leaf disks of maize (Zea mays) are sprayed with an active compound preparation of the desired concentration and, after drying, populated with caterpillars of the armyworm (Spodoptera frugiperda).
After 7 days, the efficacy in % is determined. 100% means that all the caterpillars have been killed; 0% means that no caterpillars have been killed.

[9] = acidic range, pH 2.7, 0.1% aqueous formic acid and acetonitrile, read-out: log P[a] / log P(HCOOH)
[10] = neutral range, pH 7.8, 0.001 molar aqueous ammonium hydrogencarbonate and acetonitrile, read-out: log P[b] / log P(neutral)

| Compound | logP (HCOOH) [1] | logP (neutral) [1] | efficacy in % [2] [%] | efficacy in % [3] [%] | also measured |
| --- | --- | --- | --- | --- | --- |
| Cc1ccc(-n2c(=O)n(C)c(=O)n2CC2CC2)cc1SCC(F)(F)F [Example 52] | 3.34 | 3.29 | 100 | 100 | nematicidal efficacy in % (formation of galls) [4]: 100% |
| Cc1ccc(-n2c(=O)n(C)c(=O)n2Cc2ccccc2)cc1SCC(F)(F)F [Example 57] | 3.62 | 3.56 | – | 100 | – |
| Cc1ccc(-n2c(=O)n(C)c(=O)n2Cc2ccccc2Cl)cc1SCC(F)(F)F [Example 60] | 3.80 | 3.75 | – | 83 | – |
| Cc1ccc(-n2c(=O)n(C)c(=O)n2-c2ccc(C)c([S+]([O-])CC(F)(F)F)c2)cc1SCC(F)(F)F (centres unmarked) [Example 84] | 3.46 | 3.38 | – | 100 | – |
| Cc1cc(F)c(-n2c(=O)n(C(C)C)c(=O)n2C)cc1SCC(F)(F)F [Example 91] | 3.35 | 3.28 | 100 | – | efficacy (laying of fertile eggs) [5]: 100%; efficacy (laying of fertile eggs) [6]: 100%; kill in % (Amblyomma hebraeum): 100% |
| Cc1ccc(-n2c(=O)n(C(C)C)c(=O)n2C)cc1[S+]([O-])CC(F)(F)F (centres unmarked) [Example 141] | 2.27 | 2.24 | 90 | – | efficacy (laying of fertile eggs) [5]: 90%; efficacy (laying of fertile eggs) [6]: 100%; efficacy in % [7]: 100% |
| Cc1cc(F)c(-n2[nH]c(=O)n(-c3cccc(Cl)c3)c2=O)cc1SCC(F)(F)F [Example 157] | 3.31 | 1.33 | – | – | efficacy in % [8]: 100% |
| Cc1cc(F)c(N2C(=O)C(=O)N(C3CCCCC3)C2=O)cc1SCC(F)(F)F [Example 185, 1-Cyclohexyl-3-{2-fluoro-4-methyl-5-[(2,2,2-trifluoroethyl)sulfanyl]phenyl}imidazolidine-2,4,5-trione] | – | – | – | 100 | chromatographic logP [1, 9]: 4.32; chromatographic logP [1, 10]: 4.27; pest or weed control at 500 g/ha [2]: 90% |
| Cc1cc(F)c(N2C(=O)C(=O)N(C3CCCCC3)C2=O)cc1[S+]([O-])CC(F)(F)F (centres unmarked) [Example 186, 1-Cyclohexyl-3-{2-fluoro-4-methyl-5-[(2,2,2-trifluoroethyl)sulfinyl]phenyl}imidazolidin-2,4,5-trion] | – | – | – | 100 | chromatographic logP [1, 9]: 3.36; chromatographic logP [1, 10]: 3.33; pest or weed control at 500 g/ha [2]: 100% |
| Cc1cc(F)c(N2C(=O)C(=O)N(CC(F)(F)F)C2=S)cc1[S+]([O-])CC(F)(F)F (centres unmarked) [Example 190] | 3.03 | – | 90 | 100 | – |
| Cc1cc(F)c(N2CCN(C)C2=O)cc1SCC(F)(F)F [Example 198] | 2.79 | 2.75 | 100 | 83 | – |
| Cc1cc(F)c(N2C(=O)CN(C)C2=O)cc1SCC(F)(F)F [Example 200] | 2.42 | 2.33 | 90 | 100 | efficacy in % [8]: 100% |
| Cc1cc(F)c(N2C(=O)OC(C)C2=O)cc1[S+]([O-])CC(F)(F)F (centres unmarked) [Example 206] | 2.08 | – | – | – | efficacy in % [7]: 100% |
| Cc1cc(F)c(-n2[nH]c(=O)n(C3CC3)c2=O)cc1SCC(F)(F)F [Example 207] | 1.57 | −0.23 | 90 | – | efficacy in % [8]: 83% |
| Cc1cc(F)c(N2CC(=O)N(C)C2=O)cc1SCC(F)(F)F [Example 211] | 2.66 | – | 100 | 83 | efficacy (laying of fertile eggs) [6]: 100% |
